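Each compound was tested at five concentrations against cells in 96-well plates for 48 hours. At the GI50, growth is halved. Definition used: TGI = concentration required for complete inhibition of growth.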
Legend:
Test in all cases: NCI-60 cell line screen, 48 h
786-0 renal = test system: 786-0 renal
A498 renal = test system: A498 renal
A549 NSCLC = test system: A549 NSCLC
ACHN renal = test system: ACHN renal
BT-549 breast = test system: BT-549 breast
DU-145 prostate = test system: DU-145 prostate
HCC-2998 colon = test system: HCC-2998 colon
HCT-116 colon = test system: HCT-116 colon
HL-60(TB) leukemia = test system: HL-60(TB) leukemia
HOP-62 NSCLC = test system: HOP-62 NSCLC
HOP-92 NSCLC = test system: HOP-92 NSCLC
HS 578T breast = test system: HS 578T breast
KM12 colon = test system: KM12 colon
M14 melanoma = test system: M14 melanoma
MCF7 breast = test system: MCF7 breast
MDA-MB-231 breast = test system: MDA-MB-231 breast
MDA-MB-435 = test system: MDA-MB-435
NCI-H226 lung = test system: NCI-H226 lung
NCI-H23 lung = test system: NCI-H23 lung
NCI-H460 lung = test system: NCI-H460 lung
NCI/ADR-RES ovarian = test system: NCI/ADR-RES ovarian
OVCAR-5 ovarian = test system: OVCAR-5 ovarian
PC-3 prostate = test system: PC-3 prostate
SF-295 CNS = test system: SF-295 CNS
SF-539 CNS = test system: SF-539 CNS
SK-MEL-2 melanoma = test system: SK-MEL-2 melanoma
SK-MEL-28 melanoma = test system: SK-MEL-28 melanoma
SK-OV-3 ovarian = test system: SK-OV-3 ovarian
SNB-19 CNS = test system: SNB-19 CNS
SNB-75 CNS = test system: SNB-75 CNS
TK-10 renal = test system: TK-10 renal
U251 CNS = test system: U251 CNS
UACC-257 melanoma = test system: UACC-257 melanoma
UACC-62 melanoma = test system: UACC-62 melanoma
UO-31 renal = test system: UO-31 renal

Structure (SMILES): Cc1ccc(NC(=O)c2nc(S(C)(=O)=O)oc2-c2ccc(F)cc2)cc1Nc1ccc2ncn(C)c(=O)c2c1
- GI50 (786-0 renal): 2 µM
- TGI (786-0 renal): 3.55 µM
- GI50 (A498 renal): 16.3 µM
- TGI (A498 renal): 29.8 µM
- GI50 (A549 NSCLC): 13.9 µM
- TGI (A549 NSCLC): 29.5 µM
- GI50 (ACHN renal): 1.62 µM
- TGI (ACHN renal): 2.97 µM
- GI50 (BT-549 breast): 1.48 µM
- TGI (BT-549 breast): 2.86 µM
- GI50 (DU-145 prostate): 1.72 µM
- TGI (DU-145 prostate): 3.09 µM
- GI50 (HCC-2998 colon): 2.54 µM
- TGI (HCC-2998 colon): 6.47 µM
- GI50 (HCT-116 colon): 1.75 µM
- TGI (HCT-116 colon): 3.37 µM
- GI50 (HL-60(TB) leukemia): 2.11 µM
- TGI (HL-60(TB) leukemia): 5.2 µM
- GI50 (HOP-62 NSCLC): 2.49 µM
- TGI (HOP-62 NSCLC): 7.11 µM
- GI50 (HOP-92 NSCLC): 1.91 µM
- TGI (HOP-92 NSCLC): 3.87 µM
- GI50 (HS 578T breast): 3.06 µM
- TGI (HS 578T breast): 14.9 µM
- GI50 (KM12 colon): 3.12 µM
- TGI (KM12 colon): 11.1 µM
- GI50 (M14 melanoma): 1.75 µM
- TGI (M14 melanoma): 3.72 µM
- GI50 (MCF7 breast): 1.9 µM
- TGI (MCF7 breast): 4.43 µM
- GI50 (MDA-MB-231 breast): 1.64 µM
- TGI (MDA-MB-231 breast): 3.15 µM
- GI50 (MDA-MB-435): 2.48 µM
- TGI (MDA-MB-435): 7.28 µM
- GI50 (NCI-H226 lung): 2.33 µM
- TGI (NCI-H226 lung): 5.52 µM
- GI50 (NCI-H23 lung): 2.79 µM
- TGI (NCI-H23 lung): 9.19 µM
- GI50 (NCI-H460 lung): 3.26 µM
- TGI (NCI-H460 lung): 10.9 µM
- GI50 (NCI/ADR-RES ovarian): 3.14 µM
- TGI (NCI/ADR-RES ovarian): 15.7 µM
- GI50 (OVCAR-5 ovarian): 2.1 µM
- TGI (OVCAR-5 ovarian): 5.29 µM
- GI50 (PC-3 prostate): 2.13 µM
- TGI (PC-3 prostate): 4.47 µM
- GI50 (SF-295 CNS): 16 µM
- TGI (SF-295 CNS): 31 µM
- GI50 (SF-539 CNS): 1.65 µM
- TGI (SF-539 CNS): 3.14 µM
- GI50 (SK-MEL-2 melanoma): 1.59 µM
- TGI (SK-MEL-2 melanoma): 3.29 µM
- GI50 (SK-MEL-28 melanoma): 1.74 µM
- TGI (SK-MEL-28 melanoma): 3.4 µM
- GI50 (SK-OV-3 ovarian): 14.1 µM
- TGI (SK-OV-3 ovarian): 27.1 µM
- GI50 (SNB-19 CNS): 3.46 µM
- TGI (SNB-19 CNS): 9.86 µM
- GI50 (SNB-75 CNS): 2.13 µM
- TGI (SNB-75 CNS): 5.65 µM
- GI50 (TK-10 renal): 1.83 µM
- TGI (TK-10 renal): 3.25 µM
- GI50 (U251 CNS): 2.01 µM
- TGI (U251 CNS): 3.84 µM
- GI50 (UACC-257 melanoma): 1.88 µM
- TGI (UACC-257 melanoma): 3.72 µM
- GI50 (UACC-62 melanoma): 2.03 µM
- TGI (UACC-62 melanoma): 4.88 µM
- GI50 (UO-31 renal): 1.93 µM
- TGI (UO-31 renal): 3.4 µM
